Measurements taken from patent US11278526B2, “Compounds and methods for treating lupus” (RECEPTOS LLC, priority 2016, dated 2022).
Where two headings read alike, the source gives them in different places.

Key:
NZBWF1 mice [1] = test: Kidney weight at termination (42 weeks); type: in vivo
Description: In SLE, inflammatory infiltrates known as Tertiary Lymphatic Tissue (TLT) accumulate in the kidney and spleen, among other tissues. As an indirect measure of disease progression, right and left kidneys were weighed (FIGS. 4A-4B) following termination at 42 weeks.
As in Example 5, left kidneys were weighed (FIG. 43) following termination at 42 weeks.

NZBWF1 mice [2] = test: Serum blood urea nitrogen (BUN) at termination; type: in vivo
Procedure: Lymphocyte counts were measured from whole blood taken at 23, 31, and 36.5 weeks using flow cytometry. Cells were gated for CD4+ T cells, CD8+ T cells, and CD19+ B cells. […] Serum blood urea nitrogen (BUN) was also measured at termination to assess kidney function.
As in Example 4, serum blood urea nitrogen (BUN) was measured at termination to assess kidney function.

splenocytes = test: Splenocyte counts and immunophenotyping of spleen cell subtypes; type: in vivo, mice; conditions: mouse, in vivo
Procedure: To determine the effects of compound 148 on inflammatory infiltrate in the spleen, spleens were weighed at 42 weeks. […] Splenocyte suspensions were then prepared. RBCs were lysed and splenocytes were counted.
Plasmacytoid dendritic cells (pDC) express IFNAR1 (Interferon alpha receptor 1), which amplifies the proinflammatory response to type 1 interferons (e.g., IFNα) that are associated with lupus. IFNAR activity is considered to be an important modulator of signal strength and duration in pDC and subsequent activation of T and B cells in the inflammatory response. pDC counts were measured at termination.
To determine the effects of compound 5 on inflammatory infiltrate in the spleen, spleens were weighed at 42 weeks. […] Splenocyte suspensions were prepared for all three doses. RBCs were lysed and splenocytes were counted.

NZBWF1 mice [3] = test: Survival in NZBWF1 SLE mouse model; type: in vivo; conditions: cyclophosphamide 50 mg/kg IP once a week (compound 5 study), Logrank p=0.0017
Procedure: As in Example 2, compound 5 was tested for efficacy in the same NZB×NZW F1 (“NZBWF1”) mouse model for SLE as compound 148. Six groups of NZBWF1 mice (Jackson Laboratories, stock #100008) were used in the study and were acclimated to the research facility for 6 weeks prior to the start of the study. Weekly measurements of proteinuria (excess serum proteins present in the urine) and body weight began at 20 weeks of age. At 22 weeks of age, the mice were assigned to groups in a balanced manner in order to achieve average body weight and average proteinuria measurements across the groups. One “naive” group consisting of 10 mice was euthanized at the start of treatment and used as a source of tissue for analysis. Treatment began at 22 weeks of age.
The five treatment groups were administered cyclophosphamide (positive control, 20 mice; introduced gradually to reduce toxicity (IP, once a week, 10 mg/kg at Weeks 22 and 23 and 50 mg/kg from Week 24 to the end of the study)), vehicle (negative control, 20 mice), or compound 5 (three groups of 20 mice), beginning at 22 weeks of age and observed over the course of 20 weeks. The three groups dosed with compound 5 received 0.3, 1.0, and 3.0 mg/kg PO QD, respectively (20 mice per dosage). Surviving animals were sacrificed at 42 weeks. […] Disease development was evaluated as disclosed in the following examples.

[4] = NZBWF1 mice, cyclophosphamide IP once a week
Procedure: Compound 148 was tested for efficacy in an art-accepted mouse model for SLE: NZB×NZW F1 (“NZBWF1”) mice develop an autoimmune disease closely resembling SLE. These mice spontaneously produce high levels of anti-dsDNA antibodies, an indicator of SLE, starting after 20 weeks of age. These mice develop hemolytic anemia, proteinuria, and progressive glomerulonephritis mediated by immune complex deposition in the glomerular basement membrane.
Six groups of NZBWF1 mice (Jackson Laboratories, stock #100008) were used in the study and were acclimated to the research facility for 7 weeks prior to the start of the study. Weekly measurements of proteinuria (excess serum proteins present in the urine) and body weight began at 20 weeks of age. At 23 weeks of age, the mice were assigned to groups in a balanced manner in order to achieve average body weight and average proteinuria measurements across the groups. […]
The three groups dosed with compound 148 received 0.3, 1.0, and 3.0 mg/kg PO QD, respectively (20 mice per dosage). […] Disease development was evaluated as disclosed in the following examples. […]
The three groups dosed with compound 5 received 0.3, 1.0, and 3.0 mg/kg PO QD, respectively (20 mice per dosage). […] Disease development was evaluated as disclosed in the following examples.

NZBWF1 mice [5] = test: Proteinuria scores (urine dip sticks) in NZBWF1 SLE mouse model; type: in vivo
Description: Six groups of NZBWF1 mice (Jackson Laboratories, stock #100008) were used in the study and were acclimated to the research facility for 7 weeks prior to the start of the study. Weekly measurements of proteinuria (excess serum proteins present in the urine) and body weight began at 20 weeks of age. At 23 weeks of age, the mice were assigned to groups in a balanced manner in order to achieve average body weight and average proteinuria measurements across the groups. One “naive” group consisting of 10 mice was euthanized at the start of treatment and used as a source of tissue for analysis. Treatment began at 23 weeks of age.
The three groups dosed with compound 148 received 0.3, 1.0, and 3.0 mg/kg PO QD, respectively (20 mice per dosage). Surviving animals were sacrificed at 42 weeks. […] Disease development was evaluated as disclosed in the following examples.
High levels of proteinuria are a strong indicator of SLE. […] Proteinuria was expressed as a score from 0 to 4 (0=no protein; 1=traces of protein (<30 mg/dL); 2=30-100 mg/dL; 3=100-500 mg/dL; 4=>500 mg/dL).
As in Example 3, proteinuria was measured weekly beginning at 20 weeks using urine dip sticks (Roche Diagnostics Chemstrip 2GP, cat. no. 11895397160, per manufacturer's protocol). Proteinuria was expressed as a score from 0 to 4 (0=no protein; 1=traces of protein (<30 mg/dL); 2=30-100 mg/dL; 3=100-500 mg/dL; 4=>500 mg/dL). […] (In this and the following experiments, the number of mice per group was approximately 20, and statistics were determined by one-way ANOVA with Dunnett's comparison.)

[6] = cyclophosphamide 50 mg/kg IP once a week (compound 5 study)
[7] = cyclophosphamide 50 mg/kg IP once a week (compound 148 study), p<0.05

Q: With `O=P1(N(CCCl)CCCl)NCCCO1` (stereo not shown) [cyclophosphamide, reference compound] as the compound, how does the “Left kidney weight relative to vehicle” value (NZBWF1 mice [1]; [6]) read?
A: The value was “significantly reduced kidney weight relative to vehicle”.

Q: And the “Kidney weight relative to vehicle” value (NZBWF1 mice [1]; [7])?
A: Its value is “significantly reduced kidney weight relative to vehicle”.

Q: What about the “Serum BUN at termination vs vehicle” value (NZBWF1 mice [2]; [6]) of the same compound?
A: The value was “significant reduction in serum BUN”.

Q: What about the “Serum BUN at termination vs vehicle” value (NZBWF1 mice [2]; [7]) of the same compound?
A: Its value is “significant reduction in serum BUN”.

Q: What about the “Decrease of splenic pDC counts relative to vehicle” value (splenocytes) of the same compound?
A: The value was 47%.

Q: What about the “Percent Reduction vs Vehicle: Activated CD4 + T cells” value (splenocytes) of the same compound?
A: Its value is 89%.

Q: What about the “Percent Reduction vs Vehicle: CD4 + T cells” value (splenocytes) of the same compound?
A: The value was 77%.

Q: And the “Percent Reduction vs Vehicle: CD8 + T cells” value (splenocytes)?
A: The value was 48%.

Q: What about the “Percent Reduction vs Vehicle: CD11b + Ly6C^hi monocytes” value (splenocytes) of the same compound?
A: Its value is 25%.

Q: What about the “Percent Reduction vs Vehicle: CD19 + B cells” value (splenocytes) of the same compound?
A: The value was 91%.

Q: What about the “Percent Reduction vs Vehicle: Follicular B cells” value (splenocytes) of the same compound?
A: Its value is 93%.

Q: And the “Percent Reduction vs Vehicle: Germinal Center B cells” value (splenocytes)?
A: The value was 99%.

Q: What about the “Percent Reduction vs Vehicle: Marginal Zone B cells” value (splenocytes) of the same compound?
A: The value was 57%.

Q: What about the “Percent Reduction vs Vehicle: Marginal Zone Progenitor B cells” value (splenocytes) of the same compound?
A: Its value is 78%.

Q: And the “Percent Reduction vs Vehicle: Naive CD4 + T cells” value (splenocytes)?
A: The value was 45%.

Q: What about the “Percent Reduction vs Vehicle: Plasma cells” value (splenocytes) of the same compound?
A: Its value is 90%.

Q: And the “Percent Reduction vs Vehicle: Tfh cells” value (splenocytes)?
A: Its value is 97%.

Q: And the “Percent Reduction vs Vehicle: Total splenocytes” value (splenocytes)?
A: The value was 73%.

Q: What about the “Percent Reduction vs Vehicle: Treg cells” value (splenocytes) of the same compound?
A: The value was 80%.

Q: What about the “Percent Reduction vs Vehicle: pDC” value (splenocytes) of the same compound?
A: The value was 64%.

Q: What about the “Reduction in splenic CD4+ T cell population” value (splenocytes) of the same compound?
A: The value was 84%.

Q: What about the “Reduction in splenic CD8+ T cell population” value (splenocytes) of the same compound?
A: The value was 46%.

Q: What about the “Reduction in splenic CD19+ B cell population” value (splenocytes) of the same compound?
A: The value was 92%.

Q: What about the “Reduction in splenic Follicular (FO) B cells” value (splenocytes) of the same compound?
A: Its value is 96%.

Q: What about the “Reduction in splenic Germinal Center (GC) B cell population” value (splenocytes) of the same compound?
A: Its value is 99%.

Q: What about the “Reduction in splenic Marginal Zone (MZ) B cell population” value (splenocytes) of the same compound?
A: The value was 74%.

Q: And the “Reduction in splenic activated CD4+ T cell population” value (splenocytes)?
A: Its value is 93%.

Q: And the “Reduction in splenic naïve CD4+ T cells” value (splenocytes)?
A: Its value is 47%.

Q: And the “Reduction in splenic plasma cell population” value (splenocytes)?
A: Its value is 18%.

Q: What about the “Survival compared to vehicle” value (NZBWF1 mice [3]) of the same compound?
A: The value was “improved survival compared to vehicle treated animals”.

Q: And the Body weight ([4]; 50 mg/kg from week 24 (compound 5 study))?
A: The Body weight was “increased body weights”.

Q: What about the Body weight ([4]; 50 mg/kg from week 25 (compound 148 study)) of the same compound?
A: The Body weight was “increased body weights”.

Q: And the “Proteinuria scores relative to vehicle” value (NZBWF1 mice [5]; [6])?
A: Its value is “significant improvement relative to vehicle”.

Q: And the “Proteinuria scores relative to vehicle” value (NZBWF1 mice [5]; [7])?
A: Its value is “significant improvement relative to vehicle”.
